Reference: BigSolDB 2.1

c1ccc2c(c1)sc1ccccc12
solubility (mole fraction)
Settings	in acetonitrile	in methanol
278.15 K	0.00126	0.00454
283.15 K	0.00163	0.00611
288.65 K	0.00192	0.00845
293.15 K	0.00242	0.0118
298.15 K	0.0029	0.0152
303.15 K	0.00331	0.0189
308.15 K	0.00406	0.0241
313.15 K	0.00478	0.0321
318.15 K	0.0056	0.0402
323.15 K	0.00668	0.0506
328.15 K	0.00782	0.0639
333.15 K	0.00917	0.0839
